{"source": "patent US20260283924A1", "about": "“TOPICAL COMPOSITIONS FOR PROMOTING HAIR GROWTH” (ESTETRA SRL, priority 2023, published 2026)", "key": {"[1]": {"system": "terminal and intermediate hair follicles from affected and non-affected areas of FPHL donors", "test": "Female pattern hair loss (FPHL) donor hair follicle organ culture (ex vivo model), Example 9", "assay_type": "cell-based, human", "conditions": "3 μM; for microscopic hair cycle staging: anagen: HFs from non-affected (terminal) and affected (terminal and intermediate) scalp, preliminary, 2 donors; for hair matrix keratinocytes proliferation: terminal HFs from non-affected and affected scalp; for versican expression: terminal and intermediate HFs from non-affected scalp", "description": "Example 7 is repeated for female donor subjects suffering from pattern hair loss (FPHL), with a few modifications. In brief, terminal and intermediate hair follicles (HF) from affected (vertex) and non-affected (occipital) areas were obtained from female donors diagnosed to have FPHL (FIG. 34). After microdissection from skin as described in the art (Edelkamp et al., Methods Mol Biol, 2020, 2154:105-119; and Langan et al., Exp Dermatol, 2015 December; 24(12):903-1), HFs are placed in adequate culture medium and allowed a 24 h rest period to allow them to recover from the trauma of microdissection. Test substance (either vehicle (0.03% EtOH) or E4 at concentrations of 3 μM) was added to the medium at the end of the 24 h. Total culturing time was 3-5 days depending on the stage of the HFs in the vehicle group. The experimental design is depicted in FIG. 35. The same parameters as those described in Example 7 were investigated.\n[…] Three additional donors still have to be collected."}, "[2]": {"test": "Antioxidant activity measured with Skin-Biosense sensor", "conditions": "H2O2 5 mM", "method": "The antioxidant activity of E4 was evaluated using the Skin-Biosense® sensor, a technology developed by Qima Life Sciences (Gencay, France). This electrochemical sensor measures the electron transfer between two conductive elements: the sensor and a solution of H2O2. The H2O2 solution is used as a marker for the determination of the detoxification power: as H2O2 is one of the most oxidizing non-radical species, any molecule capable of decreasing its concentration can be considered as an antioxidant. When a sample is in the presence of H2O2, all its antioxidative species spontaneously react with it and decrease its quantity. As the area of the peak measured by the sensor is directly proportional to H2O2 concentration, the detoxifying activity of a compound is evaluated by its modulation of the peak area.\nH2O2 5 mM in electrolytic ethanol solution was mixed with E4 in electrolytic ethanol solutions at several concentrations (0.16-0.5-1.6-5-16-50 mM), and the H2O2 oxidation peaks area were measured. The power of the antioxidant activity was calculated by comparing the peak area of the H202 solution with the peak area of the H2O2 solution mixed with an E4 solution."}, "[3]": {"system": "Female wild-type (C57BL/6J) mice", "test": "In vivo LPS-induced delayed wound healing model: uterine weight and morphology (systemic effect), Example 4", "conditions": "topical over wounds, 60 μl total, day -1 to day 4; uteri at day 5"}, "[4]": {"conditions": "intermediate HFs from affected scalp"}, "[5]": {"conditions": "intermediate HFs from non-affected area"}, "[6]": {"conditions": "intermediate HFs from non-affected scalp"}, "[7]": {"conditions": "intermediate HFs from non-affected scalp, listed as estetrol"}, "[8]": {"conditions": "terminal HFs from non-affected scalp"}, "[9]": {"conditions": "terminal HFs from non-affected scalp, listed as estetrol"}}}
{"smiles": "C[C@]12CC[C@@H]3c4ccc(O)cc4CC[C@H]3[C@@H]1[C@@H](O)[C@@H](O)[C@@H]2O", "note": "[Formulation E4, 1,3,5 (10)-estratrien-3,15alpha,16alpha,17beta-tetrol]", "values": [{"measurement": "hair matrix keratinocytes apoptosis", "setting": "[1]", "result": "without affecting hair matrix keratinocytes apoptosis"}, {"measurement": "dermal papilla inductivity (versican expression and alkaline phosphatase activity)", "setting": "[1]; HFs from affected area", "result": "not strikingly altered"}, {"measurement": "microscopic hair cycle staging: anagen", "setting": "[1]", "result": "prolonged anagen"}, {"measurement": "microscopic hair cycle staging: anagen", "setting": "[1]; listed as estetrol", "result": "prolongs anagen"}, {"measurement": "density of dermal papilla cells", "setting": "[1]; [4]", "result": "tendentially increased the density"}, {"measurement": "total number of dermal papilla cells", "setting": "[1]; [4]", "result": "tendentially increased"}, {"measurement": "density of dermal papilla cells", "setting": "[1]; [5]", "result": "tendentially decreases the density"}, {"measurement": "total number of cells in the dermal cup", "setting": "[1]; [5]", "result": "increases"}, {"measurement": "K15 expression, bulge basal layer", "setting": "[1]; [6]", "result": "tendentially increased K15 expression"}, {"measurement": "area size of the dermal papilla", "setting": "[1]; [6]", "result": "tendentially increased"}, {"measurement": "density of dermal papilla stalk cells", "setting": "[1]; [6]", "result": "tendentially decreased the density of dermal papilla stalk cells"}, {"measurement": "total number of cells of the dermal papilla", "setting": "[1]; [6]", "result": "tendentially increased the total number of cells"}, {"measurement": "area size of the dermal papilla", "setting": "[1]; [7]", "result": "increases"}, {"measurement": "density of dermal papilla stalk cells", "setting": "[1]; [7]", "result": "tendentially decreased"}, {"measurement": "total number of cells of the dermal papilla", "setting": "[1]; [7]", "result": "increases the total DP cell number"}, {"measurement": "proliferation of K15+ cells, bulge basal layer", "setting": "[1]; terminal HFs from affected scalp", "result": "increased proliferation of K15+ cells"}, {"measurement": "hair matrix keratinocytes proliferation", "setting": "[1]", "result": "tendentially increased hair matrix keratinocytes proliferation"}, {"measurement": "hair matrix keratinocytes proliferation", "setting": "[1]; listed as estetrol", "result": "tendentially increases hair matrix keratinocytes proliferation"}, {"measurement": "proliferation of K15+ cells, suprabulbar outer root sheath", "setting": "[1]; terminal HFs from non-affected and intermediate HFs from affected scalp", "result": "increased proliferation of K15+ cells"}, {"measurement": "density of dermal papilla stalk cells", "setting": "[1]; terminal HFs from non-affected area", "result": "without influencing their density"}, {"measurement": "K15 expression, suprabulbar outer root sheath", "setting": "[1]; [8]", "result": "tendentially increased K15 expression"}, {"measurement": "area size of the dermal papilla stalk", "setting": "[1]; [8]", "result": "significantly decreased"}, {"measurement": "number of K15 positive cells, suprabulbar outer root sheath", "setting": "[1]; [8]", "result": "tendentially increased"}, {"measurement": "total number of cells in the dermal cup", "setting": "[1]; [8]", "result": "significantly reduced the total number of cells in the dermal cup"}, {"measurement": "total number of cells of the dermal papilla stalk", "setting": "[1]; [8]", "result": "significantly decreased the total number of cells"}, {"measurement": "area size of the dermal papilla stalk", "setting": "[1]; [9]", "result": "significantly decreases"}, {"measurement": "total number of cells in the dermal cup", "setting": "[1]; [9]", "result": "significantly reduces"}, {"measurement": "total number of cells of the dermal papilla stalk", "setting": "[1]; [9]", "result": "significantly decreases the total number"}, {"measurement": "alkaline phosphatase activity (dermal papilla inductivity)", "setting": "[1]; terminal and intermediate HFs from non-affected area", "result": "tendential increase"}, {"measurement": "versican expression", "setting": "[1]", "result": "tendentially increased versican expression"}, {"measurement": "versican expression", "setting": "[1]; listed as estetrol", "result": "tendentially increases versican expression"}, {"measurement": "antioxidant activity (in words)", "setting": "[2]; E4 0.16-50 mM", "result": "potent antioxidant activity"}, {"measurement": "antioxidant activity", "setting": "[2]; highest E4 concentration, 50000 µM", "result": 100, "unit": "%"}, {"measurement": "antioxidant activity, mean power", "setting": "[2]; molar ratio E4/H2O2 of 1", "result": 77.5, "unit": "%"}, {"measurement": "uterine weight and morphology", "setting": "[3]", "result": "affects uterine weight in a dose-dependent manner"}]}
